Assay results from patent publication US7638554B2, “Flavanoids as chemotherapeutic, chemopreventive, and antiangiogenic agents” (SRI International, priority 2002, dated 2009).
Read-outs that look alike come from different tables or passages of the source.

What was measured:
[1] = system: MDA-MB-231 (ER−) breast cancer cell line; experiment: Growth inhibition assay, MTT, MDA-MB-231 breast cancer cells; format: cell-based, human; settings: Homo sapiens, MDA-MB-231, 192 h, eight days, average of at least two experiments
Protocol: Compounds of the invention were tested for their ability to inhibit growth in two breast cancer cell lines, MCF-7 (ER+) and MDA-MB-231 (ER−).
The growth inhibition assays were conducted using routine methods. Briefly, the cells were seeded in 24-well plates at a density of 2000 cells per well in 200 μL of […] growth medium. To each well was added 10 μL of DMSO containing the dissolved test compound; final DMSO concentration in each well was not more than 0.5%. Each test compound was assayed at concentrations of 0.4, 2, 10, and 50 μM. The plates were incubated for eight days, with the media and test solutions replaced every third day. On Day 8, the viable cells were measured by the MTT assay, as described in Mosmann et al. (1983), “Rapid Colorimetric Assay for Cellular Growth and Survival: Application to Proliferation and Cytotoxicity,” J. Immunol. Method. 65:55-63. The optical density at 575 nm of each test well was measured and compared to that for control wells, and the data used to calculate the percentage of growth inhibition at different concentrations. The IC50 value (the concentration of growth inhibitor that results in 50% growth inhibition of the cells in culture relative to control cells not exposed to any growth inhibitor) was determined by plotting dose-response curves.
The calculated IC50 values are set forth in Table 1, with the results representing the average of at least two experiments conducted for each compound at each of the four concentrations.

[2] = system: prostate cancer cell line LNCaP; experiment: Growth inhibition, sulforhodamine-based protein determination, LNCaP; format: cell-based; settings: Homo sapiens
Protocol: (§1) The novel compound SR 13179 was assayed for its ability to inhibit growth in several cancer cell lines. The cell lines studied included breast cancer cell line MCF-7 (ER+); prostate cancer cell lines LNCaP, PC3, and DU145; lung cancer cell line A427; ovarian cancer cell lines IGROV1, OVCAR-3, OVCAR-4, OVCAR-5, OVCAR-8, and SK-OV-3; and colon cancer cell lines COLO 205, HCC-2998, HCT-116, HCT-15, HT29, KM12, AND SW-620.
(§2) The growth assays for the breast cancer cell lines were conducted according to the method of Example 16. For the other cell lines, each assay was conducted with continuous exposure to the test compound at four log concentrations for six days, using a sulforhodamine-based protein determination to measure growth inhibition.
The procedure of Example 20 was used to evaluate the growth inhibitory effect of various compounds of the invention on LNCaP cells.

[3] = system: ovarian cancer cell line OVCAR-3; experiment: Growth inhibition, sulforhodamine-based protein determination, OVCAR-3; format: cell-based; settings: Homo sapiens, OVCAR-3, 144 h; continuous exposure six days
Protocol: as §1, §2

[4] = system: colon cancer cell line HCT-15; experiment: Growth inhibition, sulforhodamine-based protein determination, HCT-15; format: cell-based; settings: Homo sapiens, HCT-15, 144 h; continuous exposure six days
Protocol: as §1, §2

[5] = system: chick chorioallantoic membrane (CAM) blood vessels; experiment: Chick chorioallantoic membrane (CAM) assay for antiangiogenic activity; format: in vivo
Protocol: The CAM assay, which is widely applied to evaluate in vivo antiangiogenic activity, was utilized with SR 13179.
The methods used were those of Folkman (Auerbach et al. (1974) Dev. Biol. 41:391-394), with some modifications. The test compound was dissolved in saline and methylcellulose, and the embryos dosed once daily for 12-14 days. Blood vessel density of each embryo was measured as the quantitative endpoint. The known antiangiogenic compound medroxyprogesterone acetate (MPA) was used as a positive control.

[6] = system: MDA-MB-231 cells; experiment: Concurrent cytotoxicity assay (MTT), MDA-MB-231; format: cell-based, human; settings: 5 μM, 22 h
Protocol: The in vitro invasion through Matrigel was studied for two human breast cancer lines: MCF-10CA1a, a highly metastatic ER^+ line and MDA-MB-231, an ER^− line. […] At this concentration, SR13179 inhibited invasion of MDA-MB-231 by about 30% (and by 70% at 5 μM). To rule out a cytotoxic effect in the inhibition of invasion, a concurrent cytotoxicity assay was carried out and the number of viable cells was determined by MTT assay. There was less than 5% decrease in MDA-MB-231 cell viability at 5 μM concentration of SR13179 at 22 h. In the same experiment, a motility experiment was conducted, showing that cell migration was inhibited by about 20%.

[7] = system: MMP-2 (gelatinase); experiment: Zymography of MMP-2 activity in supernatants of MCF-10-CA1a cultures; format: cell-based, human; settings: 5 μM, 48 h, serum-free medium
Protocol: Zymography. Zymography as used herein is illustrated by the following general procedure. MCF10CA1a cells were grown in 100 mm in diameter tissue culture plates until 90% confluent. The cells were washed once with serum-free medium and placed in serum-free medium for 2 h prior to drug treatment. The candidate agent was added to the plate and the plate was incubated in the 5% CO2 incubator at 37° C. for 16 h. The medium was collected, concentrated and subjected to zymography. In brief, 10 μl of the sample was electrophoresed in 8% polyacrylamide gel containing 0.1% gelatin in the presence of SDS. After electrophoresis, gel was washed two times, 20 min each, in 2.5% Triton X-100 and incubated overnight at 37° C. in a solution containing 50 mM Tris-HCl, pH 8, 5 mM CaCl2, 10 mM ZnCl2 and 0.02% NaN3. The gel was then stained for 30 min with 0.5% Coomassie Brilliant Blue R-250 prepared in 30% methanol/10% acetic acid solution and destained with several washes with water.
The effect of SR 13179 on the activity of MMP-2 (gelatinase) was studied. MCF-10-CA1a cells were treated with 1, 3, and 5 μM SR 13179 in serum-free medium for 48 h. Untreated cells, grown under the same conditions, were used as control. After treatment, supernatants of the cultures were concentrated and subjected to zymography.

[8] = system: MMP-2; experiment: Extracellular level of MMP-2, MCF-10CA1a cells; format: cell-based, human; settings: 5 μM
Protocol: The effect of SR13179 on the extracellular levels of TIMP-2 as well as MMP-2 was also investigated. Treatment of MCF-10CA1a cells with SR13179 at 5 μM concentration caused 5- to 8-fold increase in the secreted level of TIMP-2 and a 2-fold decrease in the extracellular level of MMP-2. However, extracellular TIMP-2 protein was always associated with MMP-2 protein, even after the samples were boiled for 10 min and separated under the denaturing conditions of gel electrophoresis.

[9] = target: T1, p38 MAPK (Homo sapiens, UniProt Q16539); experiment: Inhibition of p38 MAPK in MCF-7 cells; format: cell-based; settings: MCF-7 human breast cancer cell line
T1 construct: endogenous in cells; host or cells: MCF-7 human breast cancer cells

[10] = 11.1 μg/CAM, once daily for 12-14 days

T1 sequence (Q16539 whole entry): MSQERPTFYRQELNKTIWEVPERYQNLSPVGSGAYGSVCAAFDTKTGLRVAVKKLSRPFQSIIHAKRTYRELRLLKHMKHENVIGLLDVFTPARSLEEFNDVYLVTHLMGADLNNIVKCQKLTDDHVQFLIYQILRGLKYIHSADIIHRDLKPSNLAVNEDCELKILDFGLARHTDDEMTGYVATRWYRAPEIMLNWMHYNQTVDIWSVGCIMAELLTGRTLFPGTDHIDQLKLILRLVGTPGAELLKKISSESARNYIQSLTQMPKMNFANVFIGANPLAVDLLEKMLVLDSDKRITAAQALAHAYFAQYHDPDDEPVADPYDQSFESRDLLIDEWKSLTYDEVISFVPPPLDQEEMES

What does the source list for `COc1cc(C2CC(O)c3ccc4ccccc4c3O2)cc(OC)c1OC` (stereo not drawn) [SR 13179, 2-(3,4,5-trimethoxyphenyl)-3,4-dihydro-2H-benzo[h]chromen-4-ol]?
IC50 [1]: 3.01 µM; IC50 ([2]; 144 h, continuous exposure six days, read-out: IC50, growth inhibition, LNCaP): 210 nM; IC50 ([2]; Table 5, read-out: Growth Inhibition (IC50), LNCaP cells): 210 nM; IC50 [3]: 180 nM; IC50 [4]: 270 nM; Blood vessel density score [5, 10]: 4.6 ± 2.2; Percent inhibition relative to control [5, 10]: 57%; in vivo antiangiogenic activity compared with MPA ([5]; CAM assay): equivalent to that of MPA; decrease in cell viability [6]: less than 5%; inhibition of MMP-2 activity [7]: > 50%; decrease in the extracellular level of MMP-2 [8]: 2 fold; p38 MAPK [9]: inhibited
